From article PMC12030284, “Anti-Breast Cancer Properties and In Vivo Safety Profile of a Bis-Carbazole Derivative” (Pharmaceutics, 2025)
Each block holds one molecule with its values, some of them ahead of it.

What was measured:
Bid = Bid immunofluorescence and mitochondria staining; format: cell-based, human; settings: MDA-MB-231 cells, 0.3 µM, 24 h
Protocol: (§1) Cells grown on glass coverslips in full medium were serum-deprived for 24 h and exposed to 1 for 24 h at its IC50 value concentration. Cells were PBS-washed and fixed (cold methanol, 15 min, −20 °C), then primary antibody in blocking solution was added (4 °C/overnight), as described. The mouse anti-Bid (sc-373939) and anti-β-Actin (69879) and the rabbit anti-β Tubulin (9104) were obtained from Santa Cruz Biotechnology and employed at a 1:100 dilution. Coverslips were washed thrice with PBS, then the secondary antibody Alexa Fluor® 568 conjugate goat-anti-mouse and Alexa Fluor® 488 conjugate goat-anti-rabbit (1:500, Thermo Fisher Scientific, Waltham, MA, USA) was added. Nuclei were DAPI (Sigma Aldrich, Mila, Italy) stained (10 min, 0.2 μg/mL) and PBS washed thrice. For mitochondrial staining, cells were pre-incubated with prewarmed (37 °C) MitoTracker® Deep Red FM probe solution (MitoTracker® Mitochondrion-Selective Probes, Invitrogen European Headquarters, Paisley PA4 9RF, UK) for 20 min (fluorescence excitation = 644, fluorescence emission = 665). A fluorescence microscope (Leica DM 6000) and LAS-X software (Leica Application Suite X, 3.5.7.23225) were used to acquire and process all images.

[1] = tested on: microtubule network in MDA-MB-231 cells; experiment: β-tubulin immunofluorescence; format: cell-based, human; settings: 24 h
Protocol: as §1

[2] = tested on: MDA-MB-231 human breast cancer cells; experiment: MTT cell viability assay, MDA-MB-231; format: cell-based; settings: for IC50: Homo sapiens, MDA-MB-231, MTT, 72 h, mean ± SD of three experiments
Protocol: (§2) The three cell lines adopted in this work (MCF-7, MDA-MB-231 and MCF-10A) were obtained from the American Type Culture Collection (ATCC, Manassas, VA, USA). MCF-7 human breast cancer cells were cultured in Dulbecco’s modified Eagle’s medium/nutrient mixture Ham F-12 (DMEM/F12), added with 10% fetal bovine serum (FBS) and 100 U mL^−1 penicillin/streptomycin. MDA-MB-231 human breast cancer cells were maintained in DMEM/F12 added with 5% FBS, 1% L-glutamine and 100 U mL^−1 penicillin/streptomycin. MCF-10A human mammary epithelial cells were cultured in DMEM/F12 medium added with 5% horse serum (HS, Thermo Fisher Scientific, Milan, Italy), 100 U mL^−1 penicillin/streptomycin, 0.5 mg mL^−1 hydrocortisone, 20 ng mL^−1 human epidermal growth factor (hEGF), 10 mg mL^−1 insulin, and 0.1 mg mL^−1 cholera enterotoxin (Sigma–Aldrich, Milan, Italy). Cells were cultured at 37 °C in a humidified atmosphere (95% air and 5% CO2) and periodically screened for checking contamination.
(§3) The 3-(4,5-dimethylthiazol-2-y1)-2,5-diphenyltetrazolium Bromide (MTT, Sigma–Aldrich, Milan, Italy) assay was used for determining cell viability. Cells were seeded on forty-eight well plates and cultured in a complete medium. Next, cells were serum-deprived (24 h). Then, cells were exposed to the tested compounds in phenol-red-free medium added with 1% of serum for 72 h. After medium removal, MTT solution was added to each well (0.5 mg/mL) and incubated at 37 °C (2 h). Cells were lysed (DMSO), and the optical density was measured (570 nm) using a microplate reader. Mean absorbance was reported as a percentage versus control, and IC50 values were calculated using GraphPad Prism 8 software (version 8.4.3., GraphPad Inc., San Diego, CA, USA). The selectivity index was obtained by the ratio of IC50 values calculated for normal and cancer cells. Data represent three independent experiments; standard deviations (SD) were reported.

caspase-3/7 = experiment: Caspase-Glo 3/7 assay; format: cell-based, human; settings: MDA-MB-231 cells, 0.3 µM, 24 h, versus DMSO-treated cells
Protocol: (§4) Caspases-3/7, -8, and -9 activities were determined using the Caspase-Glo® 3/7, 8, and 9 Assay Systems (Promega Corporation, Madison, WI, USA) as previously described.

caspase-9 = experiment: Caspase-Glo 9 assay; format: cell-based, human; settings: MDA-MB-231 cells, 0.3 µM, 24 h, versus DMSO-treated cells
Protocol: as §4

caspase-8 = experiment: Caspase-Glo 8 assay; format: cell-based, human; settings: MDA-MB-231 cells, 0.3 µM, 24 h, versus DMSO-treated cells
Protocol: as §4

[3] = tested on: MCF-7 human breast cancer cells; experiment: MTT cell viability assay, MCF-7; format: cell-based; settings: for IC50: Homo sapiens, MCF7, MTT, 72 h, mean ± SD of three experiments; for SI MCF-7: ratio of IC50 values for normal (MCF-10A) and cancer cells (MCF-7)
Protocol: as §2, §3

[4] = tested on: actin network in MDA-MB-231 cells; experiment: β-actin immunofluorescence; format: cell-based, human; settings: 0.3 µM, 24 h
Protocol: as §1

[5] = Hydrolytic stability test by 1H NMR; format: physicochemical
Protocol: ^1H NMR spectra were recorded at 298 K on a Bruker Avance 400 spectrometer operating at 400 MHz (^1H) and referred to the residual proton deuterated solvent peaks (^1H: (CD3)2SO, δ 2.50).
The hydrolytic chemical stability is an important step in early drug discovery for ensuring the potential development of compounds useful in therapy. […]

Balb/c mice = experiment: In vivo safety study, one-week intraperitoneal administration; set-up: species or system mouse; settings: 20 mg/kg i.p.
Protocol: Animals: The study utilized male Balb/c mice aged 6–8 weeks, with weights ranging from 22 to 26 g. These mice were sourced from a reputable supplier and maintained in a certified pathogen-free facility. They were housed in polycarbonate cages under controlled environmental conditions (temperature: 20–22 °C; humidity: 40–60%) with a 12 h light/dark cycle. Mice had ad libitum access to filtered water and a standard rodent chow diet, ensuring their nutritional needs were met throughout the study.
Preparation of Test Item: The investigational solution that contains the compound 1 was prepared before administration to ensure its stability and efficacy. The preparation involved dissolving compound 1 in a solvent mixture comprising 5% ethanol and Cremophor, diluted in 95% phosphate-buffered saline (PBS). […] All solutions were prepared in a sterile environment to minimize the risk of contamination.
Experimental Design: Mice were randomly assigned to one of two experimental groups to eliminate bias in treatment effects. Group 1 (negative control) consisted of six mice that received intraperitoneal injections of the vehicle solvent (5% ethanol–Cremophor in 95% PBS). Group 2 (compound 1 treatment group) comprised seven mice receiving compound 1 at a dosage of 20 mg/kg body weight, administered via intraperitoneal injection. The dosage was selected based on preliminary dose–response studies ensuring safety and efficacy.
Treatment Protocol: The treatment regimen involved administering injections every two days over a one-week period, culminating in a total of three injections per mouse. This schedule was designed to maintain consistent therapeutic levels of compound 1 in the bloodstream, providing sufficient time for both pharmacological effects and assessment of any potential adverse reactions.
Assessment Parameters: Behavioral observations were meticulously recorded on a daily basis throughout the treatment period. Trained personnel monitored the mice for signs of toxicity or any deviations from normal behavior, including changes in activity levels, grooming patterns, and feeding behavior [35]. Body weight was measured at baseline prior to treatment, immediately before each injection, and at the conclusion of the treatment period to assess any potential effects of compound 1 on growth and overall health.
After the treatment phase, mice were humanely euthanized using approved methods to minimize distress. Major organs, including the spleen, liver, lungs, brain, heart, and kidneys, were carefully excised, weighed, and subjected to morphological examination to identify any structural abnormalities or pathological changes. The organ coefficients were calculated using the following formula:Organ Coefficient (mg/10 g) = 10 × […]/weight of the mouse.
Blood samples were collected post-euthanasia using heparinized tubes to prevent coagulation. Following collection, samples were centrifuged at 1500 rpm for 7 min to separate the plasma, which was then used for biochemical analysis. A clinical chemistry analyzer measured various parameters, including transaminases (AST, ALT), creatinine, uric acid, and key electrolytes (sodium, potassium, chloride, calcium, and phosphorus), alongside alkaline phosphatase levels. Hematological evaluations were performed, including red blood cell (RBC) counts, hemoglobin (HB) levels, hematocrit (HCT), mean corpuscular hemoglobin (MCH), and white blood cell (WBC) counts.

[6] = tested on: MCF-10A human mammary epithelial cells; experiment: MTT cell viability assay, MCF-10A; format: cell-based; settings: 72 h, normal cells, mean ± SD of three experiments
Protocol: as §2, §3

tubulin = experiment: In vitro tubulin polymerization assay; format: biochemical; settings: for final OD350 value of tubulin polymerization: control reaction (DMSO) about 0.41
Protocol: The tubulin polymerization inhibition was detected using the in vitro Tubulin Polymerization Assay Kit (EMD Millipore Corporation, Burlington, MA, USA), following the procedure previously published. Briefly, polymerization reactions were performed in 70 µL final volumes (60 µL of the 60 µM tubulin in 1xPB-GTP and 10 µL of the test substance dissolved in 1xPB-GTP). Paclitaxel and Vinblastine (both at 10 µM) and 1 (1 µM) were dissolved in DMSO. The turbidity variation was measured every 30 s at 350 nm for 90 min. Turbidity (absorbance) readings were used to determine the extent of polymerization [% inhibition = (1 − A350 sample/A350 control) × 100].

MDA-MB-231 cells = experiment: TUNEL assay (nuclear DNA damage / apoptosis); format: cell-based, human; settings: 0.3 µM, 24 h
Protocol: The TUNEL assay was used for apoptosis detection, according to the manufacturer’s instructions (CF^TM488A TUNEL Assay Apoptosis Detection Kit, Biotium, Hayward, CA, USA), with some modifications (ref). Shortly, cells were grown on glass coverslips, then treated with 1 at its IC50 value. After that, they were PBS washed thrice, then methanol-fixed (−20 °C, 15 min). Cells were fixed and incubated with the enzyme and, next, counterstained with DAPI (0.2 mg mL^−1) (10 min, room temperature). Cells were washed three times with cold PBS; the mounting solution was added and observed and imaged using a fluorescence microscope (Leica DM6000, Leica Microsystems Srl, Milan, I-20090, Italy; 20× magnification) with excitation/emission wavelength maxima of 490 nm/515 nm (CF^TM488A) or 350 nm/460 nm (DAPI). Images represent two independent experiments, and representative fields were shown.

SMILES: Cc1cc(C=NN=Cc2cc(C)c3[nH]c4ccc(Br)cc4c3c2C)c(C)c2c1[nH]c1ccc(Br)cc12 [Compound 1, N,N’-bis-(6-bromo-1,4-dimethyl-9H-carbazol-3-ylmethylene)-hydrazine]
Bid localization (Bid): net translocation of Bid into the mitochondrial compartment
microtubule network morphology ([1]; 0.3 µM): net disorganization of the microtubule network
IC50 [2]: 300 ± 200 nM
SI MDA-MB-231 ([2]; ratio of IC50 values for normal (MCF-10A) and cancer cells (MDA-MB-231)): >333.3
increase of caspase-3 and -7 activity (caspase-3/7): about 70%
increase of caspase-9 activity (caspase-9): 40%
increase of caspase-8 activity (caspase-8): about 60%
IC50 [3]: 600 ± 300 nM
SI MCF-7 [3]: >166.7
actin network morphology [4]: formation of thicker actin bundles
hydrolytic stability (1H NMR spectra changes) ([5]; DMSO-d6/D2O (90:10), 37 °C, 24 h): no changes were recorded
stability in the solid state ([5]; solid state): stable in the solid state even years after synthesis
behavior (Balb/c mice; one week): normal behavioral patterns
lung coefficient versus negative control (Balb/c mice; one week): notable increase
toxic effects related to treatment (Balb/c mice; one week): no observable toxic effects
body weight change versus negative control (Balb/c mice; one week, p > 0.05): no significant differences
hematological parameters (WBC, RBC, HB, HCT, MCV, MCH, MCHC, platelet counts) versus control (Balb/c mice; one week, p > 0.05): no significant differences
organ weights (spleen, liver, brain, heart, kidney, lung) versus negative control (Balb/c mice; one week, p > 0.05): no significant differences
serum AST, ALT, creatinine, uric acid and electrolyte profiles versus control (Balb/c mice; one week, p > 0.05): comparable
organ weight coefficient Brain (Balb/c mice; three injections over one week): 0.13 ± 0.03 10× g (organ)/g(animal)
organ weight coefficient Heart (Balb/c mice; three injections over one week): 0.06 ± 0.01 10× g (organ)/g(animal)
organ weight coefficient Kidney (Balb/c mice; three injections over one week): 0.07 ± 0.01 10× g (organ)/g(animal)
organ weight coefficient Liver (Balb/c mice; three injections over one week): 0.54 ± 0.03 10× g (organ)/g(animal)
organ weight coefficient Lung (Balb/c mice; three injections over one week): 0.11 ± 0.01 10× g (organ)/g(animal)
organ weight coefficient Spleen (Balb/c mice; three injections over one week): 0.07 ± 0.02 10× g (organ)/g(animal)
IC50 [6]: > 100000 nM
effect on tubulin polymerization reaction (tubulin; 1 µM): acts as a microtubule stabilizer
final OD350 value of tubulin polymerization (tubulin; 1 µM): 0.48
TUNEL staining (nuclear DNA damage) (MDA-MB-231 cells): TUNEL-positive

SMILES: Cc1c2ccncc2c(C)c2c1[nH]c1ccccc12 [Ellipticine]
IC50 [2]: 1900 ± 100 nM
IC50 [3]: 1300 ± 200 nM
SI MCF-7 [3]: 0.9
IC50 [6]: 1200 ± 300 nM

IC50 [2]: 19 nM
IC50 [3]: 13 nM
SMILES: CC(=O)O[C@H]1C(=O)[C@@]2(C)[C@H]([C@H](OC(=O)c3ccccc3)[C@]3(O)C[C@H](OC(=O)[C@H](O)[C@@H](NC(=O)c4ccccc4)c4ccccc4)C(C)=C1C3(C)C)[C@]1(OC(C)=O)CO[C@@H]1C[C@@H]2O [Paclitaxel]
microtubule network morphology ([1]; 1 µM): massive formation of tubulin bundles and bulker fibers
SI MCF-7 [3]: 33.7
IC50 [6]: 640 nM
final OD350 value of tubulin polymerization (tubulin; 10 µM): about 0.46

IC50 [2]: 130 nM
IC50 [3]: 36.8 nM
SMILES: CC[C@]1(O)C[C@@H]2CN(CCc3c([nH]c4ccccc34)[C@@](C(=O)OC)(c3cc4c(cc3OC)N(C)[C@H]3[C@@](O)(C(=O)OC)[C@H](OC(C)=O)[C@]5(CC)C=CCN6CC[C@]43[C@@H]65)C2)C1 [Vinblastine]
microtubule network morphology ([1]; 1 µM): accumulate in disorganized dotted structures (i.e., crystals)
SI MCF-7 [3]: 0.13
IC50 [6]: 17.2 nM
effect on tubulin polymerization reaction (tubulin; 10 µM): strongly inhibited
time to reach the steady state of tubulin polymerization (tubulin; 10 µM): 35 to 40 min
final OD350 value of tubulin polymerization (tubulin; 10 µM): about 0.2
